According to publication PMC6412381, “Covalently Linking Oligomerization-Impaired GlpF Protomers Does Not Completely Re-establish Wild-Type Channel Activity” (International Journal of Molecular Sciences, 2019):

Legend:
GlpF WT (non-fused) = target: T1, GlpF WT (non-fused) (Escherichia coli, UniProt P0AER0); test: stopped-flow light scattering of E. coli SK46 cells, re-swelling by ribitol influx; type: cell-based; conditions: LB medium, mixed with equal volume of 600 mM ribitol, 25 °C, 500 µM IPTG induction; transport through channel
T1 construct: expressed from pMalp2-based plasmid in E. coli SK46 lacking GlpF and AqpZ
T1 sequence (P0AER0 1-281): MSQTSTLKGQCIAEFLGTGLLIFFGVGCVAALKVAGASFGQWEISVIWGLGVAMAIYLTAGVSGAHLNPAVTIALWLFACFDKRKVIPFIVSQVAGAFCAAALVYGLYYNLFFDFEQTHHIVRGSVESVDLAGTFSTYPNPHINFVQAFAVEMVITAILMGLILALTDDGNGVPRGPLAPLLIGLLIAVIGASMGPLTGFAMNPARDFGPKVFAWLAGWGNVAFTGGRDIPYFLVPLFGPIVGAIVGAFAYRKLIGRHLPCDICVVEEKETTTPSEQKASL

[1] = target: T2, WT4 (genetically fused GlpF tetramer) (Escherichia coli, UniProt P0AER0); test: as above; type: cell-based; conditions: LB medium, mixed with equal volume of 600 mM ribitol, 25 °C, 500 µM IPTG induction; transport through channel
T2 construct: four full-length GlpF copies fused in one polypeptide, N-terminal extension MGSGLE, Val-Glu linkers between monomers, calculated 120 kDa; expressed in E. coli SK46 lacking GlpF and AqpZ
T2 sequence (P0AER0 1-281): T1 sequence (P0AER0 1-281)

Q: How did the “k (flux rate constant)” value (GlpF WT (non-fused)) turn out when `OC[C@@H](O)[C@@H](O)[C@@H](O)CO` [ribitol] was run?
A: the ribitol conductance of the fused GlpF tetramer was slightly decreased compared to the non-fused

Q: And the “k (flux rate constant)” value [1]?
A: yet the WT4 protein was still highly active
